US6392055B1, “Synthesis and biological evaluation of analogs of the antimitotic marine natural product curacin A” (The University of Pittsburgh, priority 2000, dated 2002)
Where two headings read alike, the source gives them in different places.

Columns and labels:
[1] = biological target: tubulin (colchicine site); test: Inhibition of [3H]colchicine binding to tubulin; design: species or system bovine; details: for IC50: 5 μM [3H]colchicine, 1 μM tubulin; for Percent Colchicine Binding Inhibition (CBI), 1 μM: 1 μM compound; for Percent Colchicine Binding Inhibition (CBI), 5 μM: 5 μM compound; for Percent Colchicine Binding Inhibition (CBI), 50 μM: 50 μM compound
Experimental: Assays to determine whether 15mix-17mix inhibited binding of [^3H]colchicine to tubulin at both 30° C. and 37° C. were performed. This was accomplished using methods described previously. Kang, G.-J.; Getahun, Z.; Muzaffar, A.; Brossi, A.; Hamel, E. J. Biol. Chem. 1990, 265, 10255; Verdier-Pinard, P.; Lai, J.-Y.; Yoo, H.-D.; Yu, J.; Marquez, B.; Nagle, D. G.; Nambu, M.; White, J. D.; Falck, J. R.; Gerwick, W. H.; Day, B. W.; Hamel, E. Mol. Pharmacol. 1998, 53, 62. Briefly, 5 μM [^3H]colchicine (2.3 TBq/mmol), drug (1, 5, 10, 50, or 250 μM), or vehicle (DMSO, 5% v/v) were incubated at 30° C. for 15 minutes or at 37° C. for 10 minutes with 1 μM tubulin in the presence of 1 M monosodium glutamate, 0.1 M glucose-1-phosphate, 1 mM MgCl2, 1 mM GTP, and 0.5 mg/mL bovine serum albumin. The solutions were filtered through two stacks of DEAE-cellulose filters and the radioactivity in the filtrate was determined by scintillation spectrometry. Each series of determinations included positive controls of 1, 5, and/or 50 μM curacin A.

[2] = system: isolated bovine brain tubulin; test: Inhibition of GTP/glutamate-induced tubulin polymerization (turbidimetric, 30° C.); format: biochemical; details: for IC50: read-out: 50% Tubulin Polymerization Inhibition Concentration (TPI) IC50, 30° C., 10 μM tubulin; for Percent Tubulin Polymerization Inhibition (TPI), 5 μM: 5 μM compound
MDA-MB231 cells = test: Growth inhibition of breast carcinoma cells (MTS); format: cell-based, human
PC-3 cells = test: Growth inhibition of prostate carcinoma cells (MTS); format: cell-based, human
2008 cells = test: Growth inhibition of ovarian carcinoma cells (MTS); format: cell-based, human
[3] = incubation at 30° C. for 15 minutes, read-out: 50% Colchicine Binding Inhibitory Concentration (CBI), 30° C.
[4] = incubation at 37° C. for 10 minutes, read-out: 50% Colchicine Binding Inhibitory Concentration (CBI), 37° C.
[5] = Homo sapiens, MDA-MB-231, 48 h, read-out: GI50 MDA-MB231 (48 h)
[6] = Homo sapiens, PC-3, 48 h, read-out: GI50 PC-3 (48 h)
[7] = Homo sapiens, Ovarian carcinoma cell, 48 h, read-out: GI50 2008 (48 h)
[8] = 96 h, Table II prints no unit, read-out: GI50 MDA 96 h
[9] = read-out: GI50 MDA 48 h, 48 h, Table II prints no unit
[10] = 96 h, Table II prints no unit, read-out: GI50 PC3 96 h
[11] = read-out: GI50 PC3 48 h, 48 h, Table II prints no unit
[12] = 96 h, Table II prints no unit, read-out: GI50 2008 96 h
[13] = read-out: GI50 2008 48 h, 48 h, Table II prints no unit

Structure (SMILES)	IC50 [1, 3] [µM]	IC50 [1, 4] [µM]	IC50 [2] [µM]	GI50 (MDA-MB231 cells; [5]) [µM]	GI50 (PC-3 cells; [6]) [µM]	GI50 (2008 cells; [7]) [µM]	Percent Colchicine Binding Inhibition (CBI), 1 μM [1] [%]	Percent Colchicine Binding Inhibition (CBI), 5 μM [1] [%]	Percent Colchicine Binding Inhibition (CBI), 50 μM [1] [%]	GI50 (MDA-MB231 cells; [8]) [µM]	GI50 (MDA-MB231 cells; [9]) [µM]	GI50 (PC-3 cells; [10]) [µM]	GI50 (PC-3 cells; [11]) [µM]	GI50 (2008 cells; [12]) [µM]	GI50 (2008 cells; [13]) [µM]	Percent Tubulin Polymerization Inhibition (TPI), 5 μM [2] [%]
COc1cc(C=CCCC=CC=C(C)CCC(O)c2ccco2)cc(OC)c1OC (stereo not drawn) [Compound 17a, (4E,1E,10Z)-11-(3,4,5-Trimethoxyphenyl)-4-methyl-1-furan-2-ylundeca-4,6,10-trien-1-ol]	32 ± 4	9 ± 6	0.9	0.69 ± 0.1	8 ± 4	2.7 ± 1										
COc1ccccc1C(O)CCC(C)=CC=CCCC=Cc1cc(OC)c(OC)c(OC)c1 (stereo not drawn) [Compound 17d, (4E,6E,10Z)-11-(3,4,5-Trimethoxyphenyl)-4-methyl-1-(2-methoxy-phenyl)-2-ylundeca-4,6,10-trien-1-ol]	9 ± 5	9 ± 4	1.2	0.34 ± 0.03	0.62 ± 0.2	0.33 ± 0.02										
COc1ccc(OC)c(C(O)CCC(C)=CC=CCCC=Cc2cc(OC)c(OC)c(OC)c2)c1 (stereo not drawn) [Compound 17f, (4E,6E,10Z)-11-(3,4,5-Trimethoxyphenyl)-4-methyl-1-(2,5-dimethoxy-phenyl)-2-ylundeca-4,6,10-trien-1-ol]	> 50	> 50	> 50	9.7 ± 1	> 50	22 ± 5										
COc1ccc(/C=C\CC/C=C/C=C(\C)CCC(O)c2cccs2)c(OC)c1 (stereo not drawn) [Compound 19AR2]							−0.7 ± 7.5	−2.7 ± 6.5	−31.7 ± 7.8	7.18 ± 4.67	24 ± 1.2	37.3 ± 6.5	> 50	25.9 ± 2.1	23.8 ± 1.1	51.8
COc1ccc(/C=C\CC/C=C/C=C(\C)CCC(O)c2cc3ccccc3o2)c(OC)c1 (stereo not drawn) [Compound 19AR3]							0.7 ± 16.2	−50.0 ± 12.7	−29.0 ± 9.2	6.43 ± 7.42	42.1 ± 1.4	49.1 ± 8.9	> 50	17.7 ± 2.7	12.2 ± 2.7	60.4
COc1ccc(/C=C\CC/C=C/C=C(\C)CCC(O)c2cc3ccccc3s2)c(OC)c1 (stereo not drawn) [Compound 19AR4]							1.4 ± 18.5	−41.0 ± 17.8	−26.4 ± 14.7	18.6 ± 3	> 50	> 50	> 50	26.9 ± 3	29.8 ± 1.4	60.5
COc1ccc(/C=C\CC/C=C/C=C(\C)CCC(O)c2ccccc2OC)c(OC)c1 (stereo not drawn) [Compound 19AR5]							−3.4 ± 3.2	−17.4 ± 7.9	−26.1 ± 11.5	15.3 ± 9.8	> 50	> 50	> 50	24.2 ± 3.9	30.8 ± 8.7	34.2
COc1ccc(/C=C\CC/C=C/C=C(\C)CCC(O)c2cc(OC)ccc2OC)c(OC)c1 (stereo not drawn) [Compound 19AR6]							1.7 ± 13.9	−6.8 ± 13.1	−22.8 ± 8.9	18.3 ± 13.6	39.3 ± 11.3	> 50	> 50	32.9 ± 3.7	35.2 ± 2.4	31.2

Further compounds by falling GI50 (MDA-MB231 cells; [8]), results first:

IC50 [1, 3] [µM]	IC50 [1, 4] [µM]	IC50 [2] [µM]	GI50 (MDA-MB231 cells; [5]) [µM]	GI50 (PC-3 cells; [6]) [µM]	GI50 (2008 cells; [7]) [µM]	Percent Colchicine Binding Inhibition (CBI), 1 μM [1] [%]	Percent Colchicine Binding Inhibition (CBI), 5 μM [1] [%]	Percent Colchicine Binding Inhibition (CBI), 50 μM [1] [%]	GI50 (MDA-MB231 cells; [8]) [µM]	GI50 (MDA-MB231 cells; [9]) [µM]	GI50 (PC-3 cells; [10]) [µM]	GI50 (PC-3 cells; [11]) [µM]	GI50 (2008 cells; [12]) [µM]	GI50 (2008 cells; [13]) [µM]	Structure (SMILES)	Percent Tubulin Polymerization Inhibition (TPI), 5 μM [2] [%]
						−4.6 ± 8.5	−2.2 ± 8.2	13.2 ± 12.7	3.26 ± 6.13	26.8 ± 0.9	> 50	> 50	19.1 ± 3.1	20.2 ± 2	COc1ccc(/C=C\CC/C=C/C=C(\C)CCC(O)c2ccco2)c(OC)c1 (stereo not drawn) [Compound 19AR1]	81.7
							30.2 ± 7.3	71.6 ± 2.8	1.28 ± 0.12	0.083 ± 0.125	1.22 ± 0.22	0.875 ± 1.02	0.235 ± 0.021	0.38 ± 0.002	COc1cc(/C=C\CC/C=C/C=C(\C)CCC(O)c2cccs2)cc(OC)c1OC (stereo not drawn) [Compound 19CR2]	>100
							30.3 ± 7.5	59.7 ± 1.6	0.79 ± 0.167	0.288 ± 0.166	7.73 ± 1.22	7.99 ± 3.52	2.53 ± 0.64	2.72 ± 0.96	COc1cc(/C=C\CC/C=C/C=C(\C)CCC(O)c2ccco2)cc(OC)c1OC (stereo not drawn) [Compound 19CR1]	94.4
							5.0 ± 7.4	73.0 ± 2.4	0.221 ± 0.033	0.243 ± 0.046	0.634 ± 0.397	0.933 ± 1.25	0.268 ± 0.046	0.314 ± 0.025	COc1cc(/C=C\CC/C=C/C=C(\C)CCC(O)c2cc3ccccc3s2)cc(OC)c1OC (stereo not drawn) [Compound 19CR4]	>100
							9.9 ± 3.0	59.0 ± 7.5	0.214 ± 0.051	0.151 ± 0.051	1.02 ± 0.38	0.366 ± 0.157	0.279 ± 0.03	0.311 ± 0.063	COc1cc(/C=C\CC/C=C/C=C(\C)CCC(O)c2cc3ccccc3o2)cc(OC)c1OC (stereo not drawn) [Compound 19CR3]	>100
							12.5 ± 8.1	68.7 ± 1.1	0.204 ± 0.046	0.086 ± 0.146	1.12 ± 0.04	0.596 ± 1.25	0.199 ± 0.036	0.204 ± 0.112	COc1ccccc1C(O)CC/C(C)=C/C=C/CC/C=C\c1cc(OC)c(OC)c(OC)c1 (stereo not drawn) [Compound 19CR5]	74.6
